According to US8309068B2, “Isolated polypeptides and methods of improving muscle strength” (Myostin Therapeutics Pty Ltd., priority 2006, dated 2012):

Experiments:
C2C12 myoblasts = experiment: C2C12 myoblast proliferation assay (methylene blue endpoint); format: cell-based, murine; details: recombinant myostatin at 2.25 μg/ml in control medium
Method: A polypeptide of the invention, or a fragment, variant or derivative thereof has the biological function of antagonising myostatin activity. To determine whether a polypeptide of the invention, or a fragment, variant or derivative thereof, is able to antagonise myostatin activity, such activity can be tested by growing myoblasts in the presence or absence (control) of a candidate polypeptide of the invention. […]
The myoblast proliferation assay was carried out in uncoated 96-well microtitre plates. C2C12 cultures were seeded at 1000 cells/well. Following a 16-hour attachment period, test media containing either recombinant wild type myostatin or different myostatin antagonists were added and cells were incubated for a further 48 or 72 hour period. For competition assay, wild type myostatin was competed with different concentrations of myostatin antagonists prior to the addition into the media. After the incubation period, proliferation was assessed using methylene blue photometric endpoint assay as previously described (Thomas et al, 2000).

primary myoblasts = experiment: Myoblast chemotaxis assay, effect of recombinant myostatin; format: cell-based; details: recombinant myostatin at 2.5 μg/ml in control (CEE) medium; myoblasts from old (2 year old) mice
Method: Primary myoblasts were cultured from the hind limb muscle of young (4 to 6 week old) or old (24 month old) mice, according to the published protocols (Allen et al., 1997; Partridge, 1997). Briefly, muscles were minced, and digested in 0.2% collagenase type 1A for 90 min. Cultures were enriched for myoblasts by pre-plating on uncoated plates for 3 hours. Myoblast cultures were maintained in growth media (GM) supplemented with 20% fetal calf serum (FCS), 10% HS and 1% CEE on 10% Matrigel coated plates, at 37° C./5% CO2. The extent of culture purity was assessed by flow cytometry analysis of MyoD expression after 48 hours in culture. Cells were harvested using trypsin, suspended at a concentration of 10^6 cells/200 μl and fixed overnight in 5 ml 70% ethanol at −20° C. Staining was performed for 30 min at room temperature using rabbit polyclonal anti-MyoD, 1:200 (Santa Cruz), followed by Alexa fluor 488 anti-rabbit conjugate, 1:500 (Molecular Probes). Analysis was carried out in duplicate with 10^4 cell events collected in each assay. Debris was excluded by gating on forward and side scatter profiles. Cells were analyzed by FACScan (Becton Dickinson). […]
For the chemotaxis assay of myoblasts, a first assay was carried out on myoblasts from 2 year old mice as follows. […] Migrated cells were counted on four representative fields per membrane and the average number plotted. […]

p-FoxO1 = experiment: In vitro cancer cachexia trial: p-FoxO1 Western blot in C2C12 myotubes; format: cell-based, murine; details: 6 μg/mL recombinant Myostatin; 24 hour treatment; C2C12 myotubes
Method: C2C12 cells were differentiated for 72 hours in differentiation media (DMEM+2% HS). Following this period of differentiation the myotubes were tested with recombinant myostatin at 6 μg/mL or a combination of both myostatin and 300 recombinant protein at 30, 60, 90 or 120 μg/mL for further 24 hours to determine if 300 can rescue myostatin-mediated muscle wasting in vitro. Gene expression changes of intermediate signalling molecules critical in myostatin-mediated cachexia were analysed. Therefore, protein was isolated from cells and Western blot analysis was performed to measure protein expression levels for p-FoxO1, which we have shown to be a critical signalling intermediates in Myostatin-mediated cachexia (McFarlane et al 2006).

## recombinant myostatin: recombinant wild type myostatin (GDF-8), negative regulator of muscle growth, added to inhibit myoblasts [reference compound]
C2C12 myoblasts; after 48 hours
  inhibition of myoblast proliferation: 25%
C2C12 myoblasts; after 72 hours
  inhibition of myoblast proliferation: about 10%
Primary myoblasts
  decrease in the number of migrated myoblasts: approximately 78%
p-FoxO1
  p-FoxO1 expression (normalised to total FoxO1): down-regulation
